Assay results taken from BindingDB's records for patent US20260001888 (Merck Sharp & Dohme, 2026).

Target: High affinity cGMP-specific 3',5'-cyclic phosphodiesterase 9A (Homo sapiens, UniProt O76083)
Experiment: PDE9 Inhibitory Activity Assay
Method: Human PDE9 (PDE9A2, GenBank Accession No. NM_001001567), full length with N-terminal GST tag, was purchased from BPS Bioscience. The fluorescence polarization assay for cyclic nucleotide phosphodiesterases was performed using an IMAP FP kit supplied by Molecular Devices, Sunnyvale, CA (product #R8139). IMAP technology has been applied previously to phosphodiesterase assays (Huang, W., et al., J. Biomol Screen, 2002, 7:215). Assays were performed at room temperature in 384-well microtiter plates with an incubation volume of 20.2 μL. Solutions of test compounds were prepared in DMSO and serially diluted with DMSO to yield 8 μL of each of 10 solutions differing by 3-fold in concentration, at 32 serial dilutions per plate. 100% inhibition is determined using a known PDE9 inhibitor, such as 1-(2-chlorophenyl)-6-[(2R)-3,3,3-trifluoro-2-methylpropyl]-1,5-dihydro-4H-pyrazolo[3,4-d]pyrimidine-4-one (BAY 73-6691) (Wunder et al, Mol. Pharmacol., 2005, 68 (6): 1775-81), (6-[(3S,4S)-4-methyl-1-(pyrimidin-2-ylmethyl) pyrrolidin-3-yl]-1-(tetrahydro-2H-pyran-4-yl)-1,5-dihydro-4H-pyrazolo[3,4-d]pyrimidin-4-one (PF-04447943) (Wager et al., ACS Chemical Neuroscience, 2010, 1:435-449). 0% of inhibition is determined by using DMSO (1% final concentrations). A Labcyte Echo 555 (Labcyte, Sunnyvale, CA) is used to dispense 200 nL from each well of the titration plate to the 384 well assay plate. Human PDE9A2 membrane preps were diluted to 1 ng/ml. […] PDE9 enzyme mix and compounds were mixed and incubated at room temperature for 30 min. Following which, FAMcGMP substrate was added, shaken and incubated for an additional 60 min at room temperature. The final concentration of human PDE9 membrane preparations were 0.5 ng/ml. The final concentration of FAM-cGMP was 50 nM. After the incubation period, the enzymatic reaction was stopped by addition of binding solution (IMAP-FP, Molecular Devices, comprised of 80% Solution A, 20% Solution B and a 1:600 dilution of binding reagent) to each well. The plates were shaken then incubated at room temperature for 1 h prior to determining the fluorescence polarization (mP) using a Perkin Elmer En Vision™ plate reader (Waltham, MA).

Chain of High affinity cGMP-specific 3',5'-cyclic phosphodiesterase 9A (O76083 whole entry): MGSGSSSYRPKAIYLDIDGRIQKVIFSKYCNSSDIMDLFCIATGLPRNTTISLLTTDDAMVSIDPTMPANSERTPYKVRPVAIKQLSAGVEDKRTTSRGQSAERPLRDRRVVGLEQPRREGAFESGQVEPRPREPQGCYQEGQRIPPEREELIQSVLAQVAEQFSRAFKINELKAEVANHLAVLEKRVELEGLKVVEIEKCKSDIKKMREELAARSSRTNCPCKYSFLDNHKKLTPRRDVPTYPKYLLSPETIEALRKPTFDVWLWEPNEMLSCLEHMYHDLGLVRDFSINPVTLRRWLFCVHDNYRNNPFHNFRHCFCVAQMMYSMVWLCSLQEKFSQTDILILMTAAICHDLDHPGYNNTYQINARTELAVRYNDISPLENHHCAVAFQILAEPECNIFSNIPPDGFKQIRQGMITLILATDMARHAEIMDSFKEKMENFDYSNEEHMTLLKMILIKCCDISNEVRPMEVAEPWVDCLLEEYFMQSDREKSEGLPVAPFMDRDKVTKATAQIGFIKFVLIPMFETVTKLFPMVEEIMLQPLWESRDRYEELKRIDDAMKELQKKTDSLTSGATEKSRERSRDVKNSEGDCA

Row | Ki | Structure (SMILES)
1 | 12.1 nM | CCC(c1ncc(OC(F)(F)F)cn1)N(C)c1nc2c(c(C#N)nn2C(C)c2ccc(C(F)(F)F)nc2)c(=O)[nH]1 (single isomer, unassigned; form 1) [US20260001888, Example 59]
2 | 0.17 nM | CCC(c1ncc(OC(F)(F)F)cn1)N(C)c1nc2c(c(C#N)nn2C(C)c2ccc(C(F)(F)F)nc2)c(=O)[nH]1 (single isomer, unassigned; form 3) [US20260001888, Example 61]
3 | 50.7 nM | CCC(c1ncc(OC(F)(F)F)cn1)N(C)c1nc2c(c(C#N)nn2C(C)c2ccc(C(F)(F)F)nc2)c(=O)[nH]1 (single isomer, unassigned; form 4) [US20260001888, Example 62]
4 | 1.06 nM | CCC(c1ncc(OC(F)(F)F)cn1)N(C)c1nc2c(c(C#N)nn2C(C)c2ccc(C(F)(F)F)nc2)c(=O)[nH]1 (single isomer, unassigned; form 2) [US20260001888, Example 60]
